Assay type in all cases: functional
Assay [1] has as its system IMR-32. Kind of assay: Antiproliferative activity against human IMR-32 cells assessed as cellular metabolic activity at 1 mM incubated for 24 hrs by MTT assay. On the technique in general: Tetrazolium dyes change colour on reduction, which living cells bring about.
Assay [2] has as its system IMR-32. The assay is described as follows: Antiproliferative activity against human IMR-32 cells assessed as cellular metabolic activity at 1 mM incubated for 24 hrs by resazurin assay. On the technique in general: Resazurin is reduced to fluorescent resorufin, in cell work by metabolically active cells.
In assay [3] the test system is SK-N-SH. Kind of assay: Antiproliferative activity against human SK-N-SH cells assessed as cellular metabolic activity at 1 mM incubated for 24 hrs by resazurin assay.
In assay [4] the test system is SK-N-SH. The assay is described as follows: Antiproliferative activity against human SK-N-SH cells assessed as cellular metabolic activity at 1 mM incubated for 24 hrs by MTT assay.
In assay [5] the test system is B104. The assay is described as follows: Antiproliferative activity against rat B104 cells assessed as cellular metabolic activity at 1 mM incubated for 24 hrs by resazurin assay.
For assay [6], the system named is B104. Kind of assay: Antiproliferative activity against rat B104 cells assessed as cellular metabolic activity at 1 mM incubated for 24 hrs by MTT assay.

As to `N[C@@H](CCC(=O)N[C@@H](CSN=O)C(=O)NCC(=O)O)C(=O)O` [S-NITROSOGLUTATHIONE], the Activity in the assay on IMR-32 [1] was found to be 14%; in the assay on IMR-32 [2], 13%; in the assay with SK-N-SH [3], 15%; in the assay on SK-N-SH [4], 16%; with B104 [5] it was 17%; in the assay with B104 [6], 18%.

The values above are taken from ChEMBL document CHEMBL5136975, “NO-HDAC dual inhibitors” (Eur J Med Chem, 2022).
